Literature values, collected in US7815920B2, “Method of preparing an antigen-containing formulation” (Allergy Therapeutics (UK) Ltd, priority 1998, dated 2010).

Settings: for Water Solubility: at 25° C.

Row | Structure (SMILES) | Water Solubility | solubility in water (in words)
1 | CC(C)[C@H](N)C(=O)O [valine] | 8.9 g/100 ml H2O | 
2 | C[C@H](N)C(=O)O [alanine] | 16.7 g/100 ml H2O | 
3 | CC[C@H](C)[C@H](N)C(=O)O [isoleucine] | 4.1 g/100 ml H2O | 
4 | NC(=O)CC[C@H](N)C(=O)O [glutamine] | 3.7 g/100 ml H2O | 
5 | CSCC[C@H](N)C(=O)O [methionine] | 3.4 g/100 ml H2O | 
6 | NCCCC[C@H](N)C(=O)O [lysine] | very | quite soluble in water

More lines, main results first:

Row | Water Solubility | Structure (SMILES) | solubility in water (in words)
7 | 3.0 g/100 ml H2O | N[C@@H](Cc1ccccc1)C(=O)O [phenylalanine] | 
8 | 3.5 g/100 ml H2O | NC(=O)C[C@H](N)C(=O)O [asparagine] | 
9 | 4.2 g/100 ml H2O | N[C@@H](Cc1c[nH]cn1)C(=O)O [histidine] | 
10 | 2.4 g/100 ml H2O | CC(C)C[C@H](N)C(=O)O [leucine] | 
11 | 1.1 g/100 ml H2O | N[C@@H](Cc1c[nH]c2ccccc12)C(=O)O [tryptophan] | 
12 | very | N[C@@H](CS)C(=O)O [cysteine] | quite soluble in water
